Test results reported in patent US6436941B1, “5,6-dihydro-napth[1,2-d]-imidazole, napth[1,2-d]imidazole, and chromane[3,4-d]imidazole derivatives” (Neurogen Corporation, priority 1995, dated 2002).
Structures can show the parent of a compound that is named as a salt. Where two headings read alike, the source gives them in different places.

Tests used:
[1] = target: T1, human dopamine D4 receptor subtype (Homo sapiens, UniProt P21917); experiment: D4 receptor binding assay ([3H]YM-09151-2 displacement)
T1 construct: expressed in transfected cells
T1 sequence (P21917 1-419): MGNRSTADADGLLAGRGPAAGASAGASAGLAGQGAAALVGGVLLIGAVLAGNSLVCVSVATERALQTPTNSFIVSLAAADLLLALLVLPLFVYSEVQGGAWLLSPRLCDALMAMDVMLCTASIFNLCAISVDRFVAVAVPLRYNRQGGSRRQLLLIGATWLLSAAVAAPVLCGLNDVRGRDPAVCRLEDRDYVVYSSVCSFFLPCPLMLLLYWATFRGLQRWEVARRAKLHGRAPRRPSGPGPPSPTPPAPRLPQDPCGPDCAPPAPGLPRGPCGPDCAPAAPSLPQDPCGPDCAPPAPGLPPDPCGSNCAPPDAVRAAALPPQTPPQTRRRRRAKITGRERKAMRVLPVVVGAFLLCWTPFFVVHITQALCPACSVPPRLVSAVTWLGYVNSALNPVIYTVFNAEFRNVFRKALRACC
Method: Assay for D4 receptor binding activity
Clonal cell lines expressing the human dopamine D4 receptor subtype were harvested in PBS and the cells centrifuged and the pellets stored at −80° C. until used in the binding assay. The pellets were resuspended and the cells lysed at 4° C. in 50 mM Tris pH 7.4 buffer containing 120 mM NaCl, 1 mM EDTA and 5 mM MgCl2. The homogenate is centrifuged at 48000×g for 10 minutes at 4° C. The resulting pellet is resuspended in fresh buffer and centrifuged again. After resuspension of the pellet in fresh buffer a […] aliquot is removed for protein determination. […] Incubations were carried out for 60 minutes at 25° C. in the presence of 0.1 nM [^3H] […] The incubation was terminated by rapid filtration through Whatman GF/C filters and rinsed with 2×4 ml washes of chilled 50 mM Tris (pH 7.4) and 120 mM NaCl. Non-specific binding was determined with 1 μM spiperone and radioactivity determined by counting in an LKB beta counter. Binding parameters were determined by non-linear least squares regression analysis, from which the inhibition constant Ki could be calculated for each test compound.

[2] = target: T2, D2 receptors (Chlorocebus aethiops, UniProt P52702); experiment: D2 receptor binding assay (3H-YM 09151-2 displacement); set-up: species or system African Green monkey; details: COS cells with recombinant D2 receptor; 0.5 nM 3H-YM 09151-2
T2 construct: expressed in transfected cells; host or cells: COS cells
Method: (§1) Assay for D2 and D3 receptor binding activity
(§2) Pellets of COS cells containing recombinantly produced D2 or D3 receptors from African Green monkey were used for the assays. The sample is homogenized in 100 volumes (w/vol) of 0.05 M Tris HCl buffer at 4° C. and pH 7.4. The sample is then centrifuged at 30,000×g and resuspended and rehomogenized. The sample is then centrifuged as described and the final tissue sample is frozen until use. The tissue is resuspended 1:20 (wt/vol) in 0.05 M Tris HCl buffer containing 100 mM NaCl.
(§3) Incubations are carried out at 48° C. and contain 0.4 ml of tissue sample, 0.5 nM ^3H-YM 09151-2 and the compound of interest in a total incubation of 1.0 ml. Nonspecific binding is defined as that binding found in the presence of 1 μM spiperone; without further additions, nonspecific binding is less than 20% of total binding.

[3] = target: T3, D3 receptors (Chlorocebus aethiops, UniProt P52703); experiment: D3 receptor binding assay (3H-YM 09151-2 displacement); set-up: species or system African Green monkey; details: COS cells with recombinant D3 receptor; 0.5 nM 3H-YM 09151-2
T3 construct: expressed in transfected cells; host or cells: COS cells
Method: as §1, §2, §3

[4] = clonal cell lines expressing human D4, 0.1 nM [3H]YM-09151-2, 60 minutes at 25° C., read-out: Ki

T2 sequence (P52702 whole entry): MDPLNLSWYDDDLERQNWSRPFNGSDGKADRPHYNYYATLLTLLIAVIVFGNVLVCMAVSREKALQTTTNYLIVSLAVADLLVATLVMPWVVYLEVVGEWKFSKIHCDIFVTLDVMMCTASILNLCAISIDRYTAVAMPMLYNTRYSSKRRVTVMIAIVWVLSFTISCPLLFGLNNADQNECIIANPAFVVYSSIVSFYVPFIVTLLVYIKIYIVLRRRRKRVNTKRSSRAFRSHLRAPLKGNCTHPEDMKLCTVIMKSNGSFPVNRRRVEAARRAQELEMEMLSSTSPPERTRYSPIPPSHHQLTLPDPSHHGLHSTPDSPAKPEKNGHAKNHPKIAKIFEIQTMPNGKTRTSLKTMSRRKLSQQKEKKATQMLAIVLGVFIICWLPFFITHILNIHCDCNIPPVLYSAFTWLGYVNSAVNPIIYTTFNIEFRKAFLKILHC
T3 sequence (P52703 whole entry): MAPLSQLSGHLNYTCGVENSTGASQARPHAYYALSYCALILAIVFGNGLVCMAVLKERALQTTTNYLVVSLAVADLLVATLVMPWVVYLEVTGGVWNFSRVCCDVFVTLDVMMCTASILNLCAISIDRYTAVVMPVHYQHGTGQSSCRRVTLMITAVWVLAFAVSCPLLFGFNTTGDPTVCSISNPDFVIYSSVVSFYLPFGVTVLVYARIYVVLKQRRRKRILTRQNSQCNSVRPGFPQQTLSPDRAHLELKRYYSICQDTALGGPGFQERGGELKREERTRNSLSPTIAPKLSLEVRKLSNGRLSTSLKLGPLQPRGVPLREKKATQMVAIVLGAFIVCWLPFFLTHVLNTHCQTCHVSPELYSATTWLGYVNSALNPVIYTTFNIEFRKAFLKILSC

Row | Ki [1, 4] [µM] | Ki [2] [µM] | Ki [3] [µM] | Ki [1] [µM] | melting point | Compound
1 | 0.145 | 0.22 | 0.44 | – | – | CN(Cc1ccccc1)Cc1nc2c([nH]1)-c1ccccc1OC2 [Compound 3, 1H-{2-(N-benzyl-N-methyl)aminomethyl}chromano[3,4-d]imidazole dihydrochloride]
2 | – | 0.35 | 0.21 | 0.081 | – | CN(Cc1ccccc1)Cc1nc2c([nH]1)-c1ccccc1CC2 [Compound 2, 1H-{2-(N-benzyl-N-methyl)aminomethyl}-(5,6-dihydro)-naphth[1,2-d]imidazole dihydrochloride]
3 | – | – | – | – | 212 to 214 °C | c1cnc(N2CCN(Cc3nc4c([nH]3)-c3ccccc3CC4)CC2)nc1 (as salt: hydrochloride) [Compound 1, 1H-2-(1-(4-(2-pyrimidyl)piperazinyl))methyl-(5,6-dihydro)-naphth[1,2-d]imidazole dihydrochloride]
4 | – | – | – | – | 225 to 227 °C | CN(Cc1ccccc1)Cc1nc2c([nH]1)-c1ccccc1CC2 (as salt: hydrochloride) [Compound 2, 1H-{2-(N-benzyl-N-methyl)aminomethyl}-(5,6-dihydro)-naphth[1,2-d]imidazole dihydrochloride]
5 | – | – | – | – | 198 to 201 °C (dec.) | CN(Cc1ccccc1)Cc1nc2c([nH]1)-c1ccccc1OC2 (as salt: hydrochloride) [Compound 3, 1H-{2-(N-benzyl-N-methyl)aminomethyl}chromano[3,4-d]imidazole dihydrochloride]
6 | 0.012 | 4.2 | 7.8 | – | – | c1cnc(N2CCN(Cc3nc4c([nH]3)-c3ccccc3CC4)CC2)nc1 [Compound 1, 1H-2-(1-(4-(2-pyrimidyl)piperazinyl))methyl-(5,6-dihydro)-naphth[1,2-d]imidazole dihydrochloride]
